Measurements from US20060292683A1, “Cross-beta structures on microbial organisms” (Crossbeta Biosciences B.V., priority 2005, published 2006).

B1: factor XII: full-length purified factor XII (protein, UniProt P00748 1-615, looked up)
chain: MRALLLLGFLLVSLESTLSIPPWEAPKEHKYKAEEHTVVLTVTGEPCHFPFQYHRQLYHKCTHKGRPGPQPWCATTPNFDQDQRWGYCLEPKKVKDHCSKHSPCQKGGTCVNMPSGPHCLCPQHLTGNHCQKEKCFEPQLLRFFHKNEIWYRTEQAAVARCQCKGPDAHCQRLASQACRTNPCLHGGRCLEVEGHRLCHCPVGYTGAFCDVDTKASCYDGRGLSYRGLARTTLSGAPCQPWASEATYRNVTAEQARNWGLGGHAFCRNPDNDIRPWCFVLNRDRLSWEYCDLAQCQTPTQAAPPTPVSPRLHVPLMPAQPAPPKPQPTTRTPPQSQTPGALPAKREQPPSLTRNGPLSCGQRLRKSLSSMTRVVGGLVALRGAHPYIAALYWGHSFCAGSLIAPCWVLTAAHCLQDRPAPEDLTVVLGQERRNHSCEPCQTLAVRSYRLHEAFSPVSYQHDLALLRLQEDADGSCALLSPYVQPVCLPSGAARPSETTLCQVAGWGHQFEGAEEYASFLQEAQVPFLSLERCSAPDVHGSSILPGMLCAGFLEGGTDACQGDSGGPLVCEDQAAERRLTLQGIISWGSGCGDRNKPGVYTDVAYYLAWIREHTVS
modifications: full-length

Experiments:
Escherichia coli TOP10 = assay: ROS production by bEnd.3 endothelial cells upon exposure to E. coli TOP10; assay type: cell-based; conditions: 8.1×10^7 E. coli cells/ml with either 1.25 mg/ml IgIV, 0.8 mg/ml finger domains, 220 μM Congo red, 220 μM ThT or 1.1 μM tPA
Description: (§1) Glycated proteins comprising a cross-beta structure and amyloid-β induce inflammatory responses and are believed to contribute to the pathogenesis of certain protein misfolding diseases (diabetes type II, Alzheimer's disease). In general, misfolded proteins induce cellular dysfunction with enhanced expression or activation of inflammatory signals. The effect of misfolded proteins on endothelial cell (dys)function is, for example, measured by determining the levels of reactive oxygen species or nitric oxide or tissue factor in response to misfolded proteins. Human umbilical vein endothelial cells (HUVEC) that are isolated and cultured, according to standard protocols, are used, or other endothelial cells such as the murine microvascular bEnd.3 endothelial cell line. The levels of reactive oxygen species (ROS), like, for example, nitric oxide, are monitored using fluorescent probes, such as CM-H2DCF-DA. Alternatively, cell viability is monitored by standard MTT-assay. The levels of tissue factor expression is determined using a chromogenic assay with purified factor VII, purified factor X and chromogenic substrate S-2765 (Chromogenix), using cell lysates. For example, bEnd.3 cells are seeded at 120,000 cells/well of a 96-well culture dish, and cultured overnight. […]
(§2) To assess production of reactive oxygen species by cultured mouse microvascular bEnd.3 endothelial cells (ECs), cells are seeded at 128,000 cells/well of a 96-well plate (Costar, 3904). […] For the analysis of ROS production, 10 μl of tester samples and controls are added to separate wells, and fluorescence is measured every two minutes for 70 minutes upon excitation at 488 nm with the emission wavelength set to 538 nm. […]

[1] = tested on: protein and peptide aggregates with cross-β structure conformation; assay: ELISA binding to immobilized peptides with cross-β structure conformation; conditions: immobilized Aβ, FP13, TTR11, LAM12 or IAPP; GST-tagged F domains
Description: FIG. 2: Binding of tPA, factor XII, fibronectin and finger domains thereof to compounds with cross-β structure. Panels A-C: Full-length purified tPA (Panel A), factor XII (Panel B) and fibronectin (Panel C) bind to immobilized peptides with cross-β structure conformation, in an ELISA.
Previously, we established that tissue-type plasminogen activator specifically interacts with protein and peptide aggregates that comprise a cross-β structure conformation, a structural element found in amyloid-like polypeptide assemblies (Bouma et al., 2003; Kranenburg et al., 2002). Now, we expanded this analysis to other proteins that resemble tPA domain architecture and we separated domains of tPA. Binding of full-length tPA, factor XII and fibronectin, as well as of fibronectin type I (finger, F) domains of tPA and factor XII and F4-5 of fibronectin, to protein and peptide aggregates with cross-β structure conformation was analyzed in an ELISA. […] Binding of tPA and factor XII was established for immobilized amyloid-β(1-40) (Aβ) with amyloid-like properties, fibrin peptide FP13, that encompasses the tPA activating sequence 148KRLEVDIDIKIR160 (SEQ ID NO:——————) of the fibrin α-chain, TTR11, which is an 11 amino-acid residues peptide from transthyretin that forms cross-β structure, and LAM12, which is a 12 amino-acid residues peptide from laminin that forms cross-β structure (FIG. 2, Panels A and B). Negative controls were freshly dissolved, monomerized Aβ and non-amyloid murine islet amyloid polypeptide (mIAPP). For fibronectin, human amyloid IAPP is depicted instead of LAM12 (FIG. 2, Panel C).

S. aureus Newman [2] = assay: ROS production by bEnd.3 endothelial cells upon exposure to S. aureus Newman; assay type: cell-based, Staphylococcus aureus; conditions: 1.13×10^8 S. aureus cells/ml with either 1.25 mg/ml IgIV, 0.8 mg/ml finger domains, 220 μM Congo red, 220 μM ThT or 1.1 μM tPA
Description: as §1, §2

S. aureus Newman [3] = assay: Binding of dyes to S. aureus Newman by visual inspection; set-up: species or system Staphylococcus aureus; conditions: S. aureus Newman after incubation with Thioflavin T, Congo red, tPA and IgIV
Protocol: (§3) Staphylococcus aureus Newman, which was a kind gift of Dr. Jos van Strijp and Dr Kok van Kessel (Dept. of Microbiology, University Medical Center Utrecht, the Netherlands) was plated on a blood plate from a stock stored at −70° C., and incubated overnight at 37° C. The plate was stored at 4° C. Escherichia coli strain TOP10 (Invitrogen, 44-0301) was plated on agar with Luria broth medium from a −80° C. glycerol stock, and incubated overnight at 37° C. The plate was stored at 4° C. Overnight cultures of 5 ml in Luria broth medium were grown at 37° C. with vigorous shaking and aeration, by streaking a single colony with the tip of a pipet and transferring the tip to the medium in a 15-ml tube. The cell density in overnight cultures was determined by measuring the absorbance at 600 nm (A600=1 is equivalent with 0.8×10^9 cells/ml). Cells were pelleted by centrifugation for one minute at 16,000*g or for ten minutes at 3,000*g. Medium was discarded. One half of the cells were resuspended in PBS in 1/10 of the original medium volume (10× concentration of the cells) by pipetting and swirling. These cells were used as reference cells. […]
(§4) Binding of cross-beta structure binding compounds to E. coli TOP10 and S. aureus Newman after incubation of the bacteria with Thioflavin T, Congo red, tPA and IgIV, as described in the Materials & Methods section, was determined in two ways. […]

E. coli TOP10 = assay: Binding of dyes to E. coli TOP10 by visual inspection; set-up: species or system Escherichia coli; conditions: E. coli TOP10 after incubation with Thioflavin T, Congo red, tPA and IgIV
Protocol: as §3, §4

Molecule	effect on ROS production by bEnd.3 ECs, co-incubation (Escherichia coli TOP10)	binding to cross-β structure rich compounds in ELISA [1]	effect on ROS production by bEnd.3 ECs, co-incubation (S. aureus Newman [2])	binding of dye to bacterium cells, visual inspection (S. aureus Newman [3])	binding of dye to bacterium cells, visual inspection (E. coli TOP10)
tPA: tissue-type plasminogen activator (Actilyse, Boehringer-Ingelheim)	not able to reduce ROS production	bind specifically	does not influence S. aureus induced ROS production	–	–
fibronectin F4-5: recombinant fibronectin type I domains 4-5 of fibronectin with carboxy terminal GST-tag	–	bind specifically	–	–	–
Nc1c(/N=N/c2ccc(-c3ccc(/N=N/c4cc(S(=O)(=O)O)c5ccccc5c4N)cc3)cc2)cc(S(=O)(=O)O)c2ccccc12 [Congo red]	reverse ROS production	–	strongly inhibits ROS expression	intense red	–
fibronectin: full-length purified fibronectin	–	bind specifically	–	–	–
Cc1ccc2c(c1)sc(-c1ccc(N(C)C)cc1)[n+]2C.[Cl-] [Thioflavin T]	to some extent	–	slightly decrease ROS production	–	bound to the cells
B1	–	bind specifically	–	–	–
